As usually defined, the inhibition is the relative decrease from the control value, in per cent.

Structures can show the parent of a compound that is named as a salt.

The text below walks through data of patent US20210171503A1, “GLYCOLATE OXIDASE INHIBITORS AND USE THEREOF” (ORFAN BIOTECH INC., priority 2017, published 2021).

This assay has as its target T1, mouse glycolate oxidase (mGO) (Mus musculus, UniProt Q9WU19).
T1 construct: His6 (N); made in house; host or cells: E. coli BL21 (DE3)
T1 sequence (Q9WU19 1-370): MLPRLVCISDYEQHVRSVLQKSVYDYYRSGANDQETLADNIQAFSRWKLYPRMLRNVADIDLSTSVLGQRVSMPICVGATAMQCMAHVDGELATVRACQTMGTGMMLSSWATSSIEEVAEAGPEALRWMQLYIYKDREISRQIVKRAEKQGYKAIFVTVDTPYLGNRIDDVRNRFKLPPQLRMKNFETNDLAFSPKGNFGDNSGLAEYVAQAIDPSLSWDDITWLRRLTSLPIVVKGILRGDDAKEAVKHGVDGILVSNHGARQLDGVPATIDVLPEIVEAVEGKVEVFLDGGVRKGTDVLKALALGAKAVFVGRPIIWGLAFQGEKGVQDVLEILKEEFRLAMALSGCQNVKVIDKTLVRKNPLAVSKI
Put plainly: In vitro inhibition of mouse glycolate oxidase (mGO), HRP-coupled Trinder reaction. Format: biochemical. Conditions: compound tested at 100 μM; 40 mM glycolic acid as substrate; activity calculated at 1 minute. How it is done:
Protein expression. BL21 (DE3) E. coli transformed with recombinant pET-15b expression vector containing mouse Hao1 cDNA with an N-terminal His6 tag was grown in LB medium in the presence of 0.1 mg/mL ampicillin. For purification of recombinant mGO expressed in BL21 E. coli, bacteria pellets were thawed and re-suspended in 2 mL lysis buffer (50 mM NaH2PO4, 300 mM NaCl, 10 mM imidazole, 50 μM flavin mononucleotide (FMN), pH 7.5), and then treated for 30 minutes with 1 mM phenylmethylsulfonyl fluoride (PMSF) for protease inhibition, 0.1% Triton X-100 and 0.2 mg/mL lysozyme to break cellular membranes. After sonication, cells were centrifuged and the supernatant containing the total cellular extract (pre-column fraction) was loaded into a Ni-NTA agarose column, and incubated for 30 minutes at 4° C. to allow binding. The column was washed with two bed volumes of lysis buffer with 20 mM imidazole to eliminate unbound proteins (wash fraction). mGO was eluted using the same buffer containing 300 mM imidazole. Fractions containing purified GO were dialyzed against 300 mL of dialysis buffer (50 mM NaH2PO4, 300 mM NaCl, pH 7.5) at 4° C. with agitation overnight, and then kept at 4° C. in darkness. Protein was quantified by the bicinchoninic acid (BCA) assay.
Inhibition assays. Enzymatic activity of mGO was determined in the presence of glycolate as substrate (40 mM glycolic acid) and phosphate buffer (50 mM KPO4, 0.1 mM EDTA, pH 7). The production of glyoxylate was indirectly measured by the quantification of hydrogen peroxide formed during the first oxidation reaction. This hydrogen peroxide reacted with 4.9 mM 4-aminoantipyrine and 0.1 mM sulphonated […] in a coupled horseradish peroxidase (HRP) reaction that yields a quinoneimine dye (FIG. 1) measured at 515 nm (Trinder reaction). Enzymatic activity was calculated at 1 minute after initiation of the Trinder reaction.
Turning to `Cc1[nH]nc(C(=O)O)c1Cc1ccc(F)cc1` [Compound 12, 5-Methyl-4-(4-fluorobenzyl) 1H-pyrazole-3-carboxylic Acid], the inhibition at 100 µM was under 30%.
The same measure for `Cc1snc(C(=O)O)c1Cc1ccc(F)cc1` [Compound 13, 4-(4-Fluorobenzyl)-5-methylisothiazole-3-carboxylic Acid]: under 30%.
On to `Cc1[nH]nc(C(=O)O)c1Nc1ccc(Cc2ccc(OCCC3CCN(C(=O)OC(C)(C)C)CC3)cc2)cc1` [Compound 61, 4-((4-(4-(2-(1-(tert-butoxycarbonyl)piperidin-4-yl)ethoxy)benzyl)phenyl)amino)-5-methyl-1H-pyrazole-3-carboxylic Acid], for which the inhibition at 100 µM was over 60%.
Turning to `CC(C)(C)OC(=O)N1CCN(CCOc2ccc(Cc3ccc(Nc4ccnnc4C(=O)O)cc3)cc2)CC1` [Compound 72 Na salt, 4-((4-(4-(2-(4-(tert-Butoxycarbonyl)piperazin-1-yl)ethoxy)-benzyl)phenyl)amino)pyridazine-3-carboxylic Acid Sodium Salt], the inhibition at 100 µM was over 60%.
With `Cc1[nH]nc(C(=O)O)c1Cc1ccc(Oc2ccccc2)cc1` [Compound 10, 5-Methyl-4-(4-phenoxybenzyl)-1H-pyrazole-3-carboxylic Acid] the figure was 30 to 60%; with `O=C(O)c1nnccc1Nc1ccc(Cc2ccc(OCCC3CCNCC3)cc2)cc1` [Compound 71, 4-((4-(4-(2-(Piperidin-4-yl)ethoxy)benzyl)phenyl)amino)-pyridazine-3-carboxylic Acid hydrochloride], 30 to 60%; with `CC(C)(C)OC(=O)N1CCC(CCOc2ccc(Cc3ccc(Nc4ccnnc4C(=O)O)cc3)cc2)CC1` [Compound 70, 4-((4-(4-(2-(1-(tert-Butoxycarbonyl)piperidin-4-yl)ethoxy)benzyl)phenyl)amino)pyridazine-3-carboxylic Acid], over 60%.
With `Cc1onc(C(=O)O)c1SCc1ccccc1` [Compound 51, 4-(Benzylthio)-5-methylisoxazole-3-carboxylic Acid] the figure was under 30%.
With `COc1ccc(CNc2ccnnc2C(=O)O)c(OC)c1` [Compound 49, 4-((2,4-Dimethoxybenzyl)amino)pyridazine-3-carboxylic Acid Na Salt] the figure was 30 to 60%; with `Cc1onc(C(=O)O)c1N(Cc1ccc(Oc2ccc(C#N)cc2)cc1)Cc1ccc(Oc2ccc(C#N)cc2)cc1` [Compound 32, 4-(bis(4-(4-Cyanophenoxy)benzyl)amino)-5-methylisoxazole-3-carboxylic Acid], over 60%; with `Cc1snc(C(=O)O)c1Nc1ccc(Br)cc1` [Compound 34, 4-((4-Bromophenyl)amino)-5-methylisothiazole-3-carboxylic Acid], 30 to 60%.
For the compound `O=C(O)c1nnsc1Nc1ccc(-n2cccn2)cc1` [Compound 20, 5-((4-(1H-Pyrazol-1-yl)phenyl)amino)-1,2,3-thiadiazole-4-carboxylic Acid], the inhibition at 100 µM was over 60%.
Regarding `O=C(O)c1nnsc1Cc1ccc(Oc2ccccc2)cc1` [Compound 18, 5-(4-Phenoxybenzyl)-1,2,3-thiadiazole-4-carboxylic Acid], the inhibition at 100 µM is 30 to 60%.
With `Cc1onc(C(=O)O)c1Nc1ccc(CCc2ccc(F)cc2)cc1` [Compound 56, 4-((4-(4-fluorophenethyl)phenyl)amino)-5-methylisoxazole-3-carboxylic Acid] the figure was 30 to 60%; with `Cc1n[nH]c(C(=O)O)c1NCc1ccc(F)cc1` [Compound 43, 4-((4-Fluorobenzyl)amino)-3-methyl-1H-pyrazole-5-carboxylic Acid], 30 to 60%; with `O=C(O)c1nnsc1Nc1cccc(-c2ccccn2)c1` [Compound 52, 5-((3-(pyridin-2-yl)phenyl)amino)-1,2,3-thiadiazole-4-carboxylic Acid Na Salt], over 60%.
With `Cc1onc(C(=O)O)c1NCc1ccc(Oc2ccc(C#N)cc2)cc1` [Compound 31, 4-((4-(4-Cyanophenoxy)benzyl)amino)-5-methylisoxazole-3-carboxylic Acid] the figure was 30 to 60%.
With `Cc1[nH]nc(C(=O)O)c1Nc1ccc(Cc2ccc(OCCN3CCNCC3)cc2)cc1` [Compound 64, 5-methyl-4-((4-(4-(2-(piperazin-1-yl)ethoxy)benzyl)phenyl)amino)-1H-pyrazole-3-carboxylic Acid hydrochloride] the figure was under 30%.
Take `O=C(O)c1nnsc1Nc1cccc(Br)c1` [Compound 23, 5-((3-Bromophenyl)amino)-1,2,3-thiadiazole-4-carboxylic Acid]: the inhibition at 100 µM was over 60%.
With `Cc1[nH]nc(C(=O)O)c1Cc1ccc(-c2ccc(C#N)cc2)cc1` [Compound 7, 4-((4′-Cyano-[1,1′-biphenyl]-4-yl)methyl)-5-methyl-H-pyrazole-3-carboxylic Acid] the figure was 30 to 60%; with `Cc1[nH]nc(C(=O)O)c1Nc1ccc(Cc2ccc(OCCN3CCN(C(=O)OC(C)(C)C)CC3)cc2)cc1` [Compound 63, 4-((4-(4-(2-(4-(tert-butoxycarbonyl)piperazin-1-yl)ethoxy)benzyl)phenyl)amino)-5-methyl-1H-pyrazole-3-carboxylic Acid], under 30%; with `Cc1[nH]nc(C(=O)O)c1Nc1ccc(Cc2ccc(OCCOC3CNC3)cc2)cc1` [Compound 60, 4-((4-(4-(2-(azetidin-3-yloxy)ethoxy)benzyl)phenyl)amino)-5-methyl-1H-pyrazole-3-carboxylic Acid hydrochloride], under 30%.
With `O=C(O)c1nnccc1NCc1ccc(F)cc1` [Compound 50, sodium salt, 4-((4-Fluorobenzyl)amino)pyridazine-3-carboxylic Acid, sodium Salt] the figure was under 30%; with `CCCCCC(Sc1c(C(=O)O)noc1C)c1ccc(F)cc1` (stereo not drawn) [Compound 75, 4-((1-(4-fluorophenyl)hexyl)thio)-5-methylisoxazole-3-carboxylic Acid], 30 to 60%; with `Cc1onc(C(=O)O)c1Nc1ccc(C#N)cc1` [Compound 30, 4-((4-Cyanophenyl)amino)-5-methylisoxazole-3-carboxylic Acid], under 30%.
The same measure for `O=C(O)c1nnsc1Cc1ccc(F)cc1` [Compound 16, 5-(4-Fluorobenzyl)-1,2,3-thiadiazole-4-carboxylic Acid]: under 30%; for `CCCC/C=C(/SC1=C(C(=O)O)NNC=C1)c1ccc(F)cc1` [Compound 78, (E)-4-((1-(4-Fluorophenyl)hex-1-en-1-yl)thio)-1,2-dihydropyridazine-3-carboxylic Acid]: under 30%.
In the case of `Cc1onc(C(=O)O)c1NCc1ccc(F)cc1` [Compound 29, 4-((4-Fluorobenzyl)amino)-5-methylisoxazole-3-carboxylic Acid], the inhibition at 100 µM is 30 to 60%.
With `N#Cc1ccc(-c2cccc(Nc3ccnnc3C(=O)O)c2)cc1` [Compound 48, sodium salt, 4-((4′-Cyano-[1,1′-biphenyl]-3-yl)amino)pyridazine-3-carboxylic Acid] the figure was 30 to 60%; with `COc1ccc(CN(c2ccc(-c3ccc(C#N)cc3)cc2)c2c(C(=O)O)n[nH]c2C)cc1` [Compound 57, 4-((4′-cyano-[1,1′-biphenyl]-4-yl)(4-methoxybenzyl)amino)-5-methyl-1H-pyrazole-3-carboxylic Acid], 30 to 60%.
The same measure for `Cc1[nH]nc(C(=O)O)c1Nc1ccc(Cc2ccc(OCCCCN3CCOCC3)cc2)cc1` [Compound 65, 5-methyl-4-((4-(4-(4-morpholinobutoxy)benzyl)phenyl)amino)-1H-pyrazole-3-carboxylic Acid]: under 0%; for `CCCCCC(Sc1c(C(=O)O)n[nH]c1C)c1ccc(F)cc1` (stereo not drawn) [Compound 79, 4-((1-(4-Fluorophenyl)hexyl)thio)-5-methyl-1H-pyrazole-3-carboxylic Acid]: over 60%.
Regarding `Cc1[nH]nc(C(=O)O)c1Nc1ccc(Cc2ccc(OCCC3CCNCC3)cc2)cc1` [Compound 62, 5-methyl-4-((4-(4-(2-(piperidin-4-yl)ethoxy)benzyl)phenyl)amino)-1H-pyrazole-3-carboxylic Acid hydrochloride], the inhibition at 100 µM is under 30%.
